Tests used:
Oral Lichen Planus = settings: cited from earlier work
[1] = Rapamycin stability in solution; format: physicochemical; settings: known concentration solutions at 37° C. for 24 hours
Experimental: Rapamycin stability was evaluated by sampling known concentration solutions at 37° C. for 24 hours.

In the case of `CO[C@H]1C[C@@H]2CC[C@@H](C)[C@@](O)(O2)C(=O)C(=O)N2CCCC[C@H]2C(=O)O[C@H]([C@H](C)C[C@@H]2CC[C@@H](O)[C@H](OC)C2)CC(=O)[C@H](C)/C=C(\C)[C@@H](O)[C@@H](OC)C(=O)[C@H](C)C[C@H](C)/C=C/C=C/C=C/1C` [Rapamycin], the “Local side effect after first application” value (Oral Lichen Planus; direct topical application to the diseased regions) is given as “tingling or burning sensations were encountered”, the Blood levels (Oral Lichen Planus; direct topical application) is given as “negligible” and the Systemic adverse effects (Oral Lichen Planus; direct topical application) is given as “no systemic adverse effects were encountered”. For the same compound, the Rapamycin stability [1] was “No stability problems were observed”.

Source: patent US10485792B2, “Sustained release delivery systems for the prevention and treatment of head and neck cancers” (HADASIT MEDICAL RESEARCH SERVICES & DEVELOPMENT LIMITED, priority 2009, dated 2019)
